One data set has as its target T1, integrin αvβ3 (Homo sapiens, UniProt P05106+P06756).
T1 construct: evaluated using U87MG cells (integrin αvβ3-positive); endogenous in cells; host or cells: U87MG human glioblastoma cells (ATCC)
The data set can be described thus: competitive cell binding assay using ^125I-echistatin on U87MG cells. Conditions: for IC50: n=3, read-out: IC50 (inhibition of ^125I-echistatin binding to U87MG cells). Here is the method:
Experiments were performed on U87MG human glioblastoma cells with triplicate samples as previously reported.
In vitro integrin αvβ3-binding affinities and specificities of RGD4, PRGD4 and FPRGD4 were assessed via displacement cell binding assays using ^125I-echistatin as the integrin αvβ3-specific radioligand. Experiments were performed on U87MG human glioblastoma cells by the method previously described (J Nucl Med. 2005;46:1707-1718 J Nucl Med. 2006;47:1172-1180, which is incorporated herein by reference for the corresponding discussion). […] Experiments were performed with triplicate samples.
Experiments were performed with triplicate samples.
In vitro integrin-binding affinity and specificity of RGD multimers and DOTA-RGD multimers were assessed via competitive cell binding assays using ^125I-echistatin as the integrin αvβ3-specific radioligand (J Nucl Med. 2005;46:1707-1718, which is incorporated herein by reference for the corresponding discussion). […] Experiments were performed with triplicate samples.

A further data set in a line: in vivo. Particulars: mouse, iv, 3.7 MBq, total radioactivity, U87MG tumor uptake. How it is done:
PET scans and image analysis were performed using a microPET R4 rodent model scanner (Siemens Medical Solutions) as previously reported (J Nucl Med 2006;47:113-121 and J Nucl Med 2005;46:1707-1718, each of which is incorporated herein by reference for the corresponding discussion). Each mouse was tail-vein injected with about 3.7 MBq (100 μCi) of ^18F-FPRGD2 under isoflurane anesthesia. The 30-min dynamic scan (1×30 s, 4×1 min, 1×1.5 min, 4×2 min, 1×2.5 min, 4×3 min, total of 15 frames) was started 1 min after injection. Five min static PET images were also acquired at 1 h and 2 h post-injection (p.i.). The images were reconstructed by a 2-dimensional ordered-subsets expectation maximum (OSEM) algorithm and no correction was applied for attenuation or scatter.
PET scans and image analysis were performed using a microPET R4 rodent model scanner (Siemens Medical Solutions) as previously reported. For U87MG tumor model, mice (n=3) were tail-vein injected with about 3.7 MBq (100 μCi) of ^18F-FPRGD4 under isoflurane anesthesia and then subjected to a 30-min dynamic scan (1×30 s, 4×1 min, 1×1.5 min, 4×2 min, 1×2.5 min, 4×3 min, total of 15 frames) starting from 1 min p.i. Five min static PET images were also acquired at 1, 2, and 3 h p.i. The images were reconstructed by 2-dimensional ordered-subsets expectation maximum (OSEM) algorithm. No attenuation or scatter correction was applied. […] The 5-min static PET scans was then acquired at 30 min and 1 h p.i. Multiple time point static scans were also obtained for orthotopic MDA-MB-435, c-neu oncomouse, and subcutaneous DU145 tumor models after tail-vein injected with 3.7 MBq of ^18F-FPRGD4.
For each microPET scan, regions of interest (ROIs) were drawn over the tumor, normal tissue, and major organs by using vendor software (ASI Pro 5.2.4.0) on decay-corrected whole-body coronal images. The maximum radioactivity concentration (accumulation) within a tumor or an organ was obtained from mean pixel values within the multiple ROI volume, which were converted to counts/mL/min by using a conversion factor. Assuming a tissue density of 1 g/mL, the ROIs were converted to counts/g/min and then divided by the administered activity to obtain an imaging ROI-derived % ID/g. […]
PET scans and image analysis were performed using a microPET R4 rodent model scanner (Siemens Medical Solutions) as previously reported (J Nucl Med. 2005;46:1707-1718 and J Nucl Med. 2006;47:113-121, each of which is incorporated herein by reference for the corresponding discussion). About 9.3 MBq of ^64Cu-DOTA-RGD multimer was intravenously injected into each mouse under isoflurane anesthesia. Five minute static scans were acquired at 30 min, 1 h, 2 h, 6 h, and 20 h p.i. The images were reconstructed by a 2-dimensional ordered-subsets expectation maximum (OSEM) algorithm and no correction was applied for attenuation and scatter. For each microPET scan, regions of interest (ROIs) were drawn over the tumor, normal tissue, and major organs on decay-corrected whole-body coronal images. The radioactivity concentration (accumulation) within a tumor was obtained from the maximum value within the multiple ROIs and then converted to % ID/g.
PET scans and image analysis were performed using a microPET R4 rodent model scanner (Siemens Medical Solutions) as previously reported (J Nucl Med. 2006;47:113-21 and J Nucl Med. 2005;46:1707-18, which is incorporated herein by reference for the corresponding discussion). […] The 60-min dynamic scan (5×1 min, 10×3 min, 5×5 min, total of 20 frames) was started 1 min after injection. A 2 h time point static scan was also acquired after the 60 min dynamic scan. Five min static PET images were also acquired separately at 30 min, 1 h and 2 h time points post-injection (p.i.) for another set of tumor-bearing mice (n=3/tracer). The images were reconstructed by a 2-dimensional ordered-subsets expectation maximum (OSEM) algorithm and no correction was necessary for attenuation or scatter correction. […]

These results are taken from patent US20080267882A1, “Imaging compounds, methods of making imaging compounds, methods of imaging, therapeutic compounds, methods of making therapeutic compounds, and methods of therapy” (Stanford University, priority 2007, published 2008).

Like-named read-outs stand apart in the source and are kept apart here.

Take `N=C(N)NCCC[C@@H]1NC(=O)[C@H](CCCCNC(=O)CC[C@H](NC(=O)CC[C@H](NC(=O)CN2CCN(CC(=O)O)CCN(CC(=O)O)CCN(CC(=O)O)CC2)C(=O)N[C@@H](CCC(=O)NCCCC[C@@H]2NC(=O)[C@@H](Cc3ccc(O)cc3)NC(=O)[C@H](CC(=O)O)NC(=O)CNC(=O)[C@H](CCCNC(=N)N)NC2=O)C(=O)NCCCC[C@@H]2NC(=O)[C@@H](Cc3ccc(O)cc3)NC(=O)[C@H](CC(=O)O)NC(=O)CNC(=O)[C@H](CCCNC(=N)N)NC2=O)C(=O)NCCCC[C@@H]2NC(=O)[C@@H](Cc3ccc(O)cc3)NC(=O)[C@H](CC(=O)O)NC(=O)CNC(=O)[C@H](CCCNC(=N)N)NC2=O)NC(=O)[C@@H](Cc2ccc(O)cc2)NC(=O)[C@H](CC(=O)O)NC(=O)CNC1=O` [DOTA-RGD tetramer]: the IC50 at integrin αvβ3 (Example 4) came out at 28 nM.

On to `N=C(N)NCCC[C@@H]1NC(=O)[C@H](CCCCNC(=O)CC[C@H](NC(=O)CC[C@H](NC(=O)COCCOCCOCCN)C(=O)N[C@@H](CCC(=O)NCCCC[C@@H]2NC(=O)[C@@H](Cc3ccc(O)cc3)NC(=O)[C@H](CC(=O)O)NC(=O)CNC(=O)[C@H](CCCNC(=N)N)NC2=O)C(=O)NCCCC[C@@H]2NC(=O)[C@@H](Cc3ccc(O)cc3)NC(=O)[C@H](CC(=O)O)NC(=O)CNC(=O)[C@H](CCCNC(=N)N)NC2=O)C(=O)NCCCC[C@@H]2NC(=O)[C@@H](Cc3ccc(O)cc3)NC(=O)[C@H](CC(=O)O)NC(=O)CNC(=O)[C@H](CCCNC(=N)N)NC2=O)NC(=O)[C@@H](Cc2ccc(O)cc2)NC(=O)[C@H](CC(=O)O)NC(=O)CNC1=O` [PRGD4, NH2-mini-PEG-CO-E{E[c(RGDyK)]2}2], for which the IC50 on integrin αvβ3 (Example 2) amounted to 46.5 ± 5.3 nM.

As to `N=C(N)NCCC[C@@H]1NC(=O)[C@H](CCCCNC(=O)CC[C@H](NC(=O)CC[C@H](NC(=S)Nc2ccc(C[C@H]3CN(CC(=O)O)CCN(CC(=O)O)CCN3CC(=O)O)cc2)C(=O)N[C@@H](CCC(=O)NCCCC[C@@H]2NC(=O)[C@@H](Cc3ccc(O)cc3)NC(=O)[C@H](CC(=O)O)NC(=O)CNC(=O)[C@H](CCCNC(=N)N)NC2=O)C(=O)NCCCC[C@@H]2NC(=O)[C@@H](Cc3ccc(O)cc3)NC(=O)[C@H](CC(=O)O)NC(=O)CNC(=O)[C@H](CCCNC(=N)N)NC2=O)C(=O)NCCCC[C@@H]2NC(=O)[C@@H](Cc3ccc(O)cc3)NC(=O)[C@H](CC(=O)O)NC(=O)CNC(=O)[C@H](CCCNC(=N)N)NC2=O)NC(=O)[C@@H](Cc2ccc(O)cc2)NC(=O)[C@H](CC(=O)O)NC(=O)CNC1=O` [NOTA-RGD4, NOTA-E{E[c(RGDyK)]2}2], at integrin αvβ3 (Example 5), the “fold higher integrin αvβ3 affinity than NOTA-RGD1” value came to 13 fold, the “fold increase of integrin avidity compared to NOTA-RGD2” value was 3 fold and the IC50 is 16.1 ± 3.1 nM.

Regarding `N=C(N)NCCC[C@@H]1NC(=O)[C@H](CCCCNC(=O)CC[C@H](NC(=O)CC[C@H](NC(=S)Nc2ccc(C[C@H]3CN(CC(=O)O)CCN(CC(=O)O)CCN3CC(=O)O)cc2)C(=O)N[C@@H](CCC(=O)NCCCC[C@@H]2NC(=O)[C@@H](Cc3ccc(O)cc3)NC(=O)[C@H](CC(=O)O)NC(=O)CNC(=O)[C@H](CCCNC(=N)N)NC2=O)C(=O)NCCCC[C@@H]2NC(=O)[C@@H](Cc3ccc(O)cc3)NC(=O)[C@H](CC(=O)O)NC(=O)CNC(=O)[C@H](CCCNC(=N)N)NC2=O)C(=O)NCCCC[C@@H]2NC(=O)[C@@H](Cc3ccc(O)cc3)NC(=O)[C@H](CC(=O)O)NC(=O)CNC(=O)[C@H](CCCNC(=N)N)NC2=O)NC(=O)[C@@H](Cc2ccc(O)cc2)NC(=O)[C@H](CC(=O)O)NC(=O)CNC1=O` [^68Ga-NOTA-RGD4, metal not drawn], in the data set “in vivo” (athymic nude), the tissue uptake at 0.5 h was 3.4 ± 0.1 %ID/g, the tissue uptake at 1 h stood at 2.8 ± 0.1 %ID/g and the tissue uptake at 2 h was found to be 2 ± 0.2 %ID/g. In the data set “in vivo” (nude), the tissue uptake at 5 min stood at 4.9 %ID/g, the tissue uptake at 0.25 h was determined as 4.08 %ID/g, the tissue uptake at 0.5 h worked out at 3.48 %ID/g and the tissue uptake at 1 h was found to be 2.86 %ID/g. Further, the tissue uptake at 2 h in “in vivo” (nude) is 2.13 %ID/g.

In the case of `N=C(N)NCCC[C@@H]1NC(=O)[C@H](CCCCNC(=O)CC[C@H](NC(=O)CC[C@H](NC(=O)COCCOCCOCCNC(=O)c2ccc(F)cc2)C(=O)N[C@@H](CCC(=O)NCCCC[C@@H]2NC(=O)[C@@H](Cc3ccc(O)cc3)NC(=O)[C@H](CC(=O)O)NC(=O)CNC(=O)[C@H](CCCNC(=N)N)NC2=O)C(=O)NCCCC[C@@H]2NC(=O)[C@@H](Cc3ccc(O)cc3)NC(=O)[C@H](CC(=O)O)NC(=O)CNC(=O)[C@H](CCCNC(=N)N)NC2=O)C(=O)NCCCC[C@@H]2NC(=O)[C@@H](Cc3ccc(O)cc3)NC(=O)[C@H](CC(=O)O)NC(=O)CNC(=O)[C@H](CCCNC(=N)N)NC2=O)NC(=O)[C@@H](Cc2ccc(O)cc2)NC(=O)[C@H](CC(=O)O)NC(=O)CNC1=O` [FPRGD4, FB-NH-mini-PEG-CO-E{E[c(RGDyK)]2}2], the IC50 at integrin αvβ3 (Example 2) was determined as 37.7 ± 7 nM.

For `N=C(N)NCCC[C@@H]1NC(=O)[C@H](CCCCNC(=O)CC[C@H](NC(=O)CC[C@H](NC(=O)CC[C@H](NC(=O)CN2CCN(CC(=O)O)CCN(CC(=O)O)CCN(CC(=O)O)CC2)C(=O)N[C@@H](CCC(=O)N[C@@H](CCC(=O)NCCCC[C@@H]2NC(=O)[C@@H](Cc3ccc(O)cc3)NC(=O)[C@H](CC(=O)O)NC(=O)CNC(=O)[C@H](CCCNC(=N)N)NC2=O)C(=O)NCCCC[C@@H]2NC(=O)[C@@H](Cc3ccc(O)cc3)NC(=O)[C@H](CC(=O)O)NC(=O)CNC(=O)[C@H](CCCNC(=N)N)NC2=O)C(=O)N[C@@H](CCC(=O)NCCCC[C@@H]2NC(=O)[C@@H](Cc3ccc(O)cc3)NC(=O)[C@H](CC(=O)O)NC(=O)CNC(=O)[C@H](CCCNC(=N)N)NC2=O)C(=O)NCCCC[C@@H]2NC(=O)[C@@H](Cc3ccc(O)cc3)NC(=O)[C@H](CC(=O)O)NC(=O)CNC(=O)[C@H](CCCNC(=N)N)NC2=O)C(=O)N[C@@H](CCC(=O)NCCCC[C@@H]2NC(=O)[C@@H](Cc3ccc(O)cc3)NC(=O)[C@H](CC(=O)O)NC(=O)CNC(=O)[C@H](CCCNC(=N)N)NC2=O)C(=O)NCCCC[C@@H]2NC(=O)[C@@H](Cc3ccc(O)cc3)NC(=O)[C@H](CC(=O)O)NC(=O)CNC(=O)[C@H](CCCNC(=N)N)NC2=O)C(=O)NCCCC[C@@H]2NC(=O)[C@@H](Cc3ccc(O)cc3)NC(=O)[C@H](CC(=O)O)NC(=O)CNC(=O)[C@H](CCCNC(=N)N)NC2=O)NC(=O)[C@@H](Cc2ccc(O)cc2)NC(=O)[C@H](CC(=O)O)NC(=O)CNC1=O` [DOTA-RGD octamer], the IC50 at integrin αvβ3 (Example 4) is 11 nM.

What is called IC50 is the concentration that inhibits the measured activity by half. As a reminder, the tissue uptake is the percentage of the injected dose found per gram of tissue.
